Measurements published in paper PMC13128454, “Mutant p53 protein accumulation is selectively targetable by proximity-inducing drugs” (Nature Chemical Biology, 2025).
Where “and” joins values, the source holds several entries; their conditions need not be identical. Equal values may be shown once.

Legend:
Type in all cases: cell-based
[1] = test system: Halo–p53-Y220C ΔTAD–mCherry 293T cells; assay: cell-cycle analysis (DNA content, DAPI flow cytometry); set-up: 4N / 8N / Right_of_Gate1 (replicates) / Right_of_Gate2 (replicates) / 2N: unit not given here; conditions: Y220C, 1 day
Protocol: (§1) Cells were split into a 10-cm dish at low confluency (20%) and grown overnight. Cells were synchronized using overnight treatment with palbociclib (150 nM), washed and split into a six-well plate for treatment with compound for 24 h. Cells were harvested by trypsinization, washed twice with cold 1× PBS, fixed by dropwise addition of ice-cold 70% ethanol while vortexing and incubated overnight (4 °C). Fixed samples were centrifuged at 1,000g for 5 min and 70% ethanol was removed. Cells were washed twice with 1× PBS + 1% BSA before DNA labeling with 1 µg ml^−1 DAPI for 10 min at room temperature, before being analyzed for DNA content by flow cytometry (Beckman CytoFLEX LX).

[2] = test system: Halo–p53-Y220C ΔTAD–mCherry 293T cells; assay: caspase 3/7 glo; conditions: for mean_norm (caspase 3/7 glo): Cell_Line Y220C, normalized to Concentration 0; for raw caspase 3/7 glo signal, single replicate: Y220C
Protocol: (§2) Cells were plated in 384-well plates (typically 1,500 cells per well) with varying concentrations of compounds with a total volume of 50 μl per well. After 1 day, caspase 3/7 glo reagent (Promega) was added following the manufacturer’s protocol and read out using an EnVision 2105 multimode plate reader.

[3] = test system: parental 293T cells; assay: caspase 3/7 glo; conditions: for mean_norm (caspase 3/7 glo): Cell_Line WT, normalized to Concentration 0; for raw caspase 3/7 glo signal, single replicate: WT
Protocol: as §2

[4] = test system: Halo–p53-Y220C ΔTAD–mCherry 293T cells; assay: annexin–PI staining; conditions: for P3_avg (P3 = early apoptotic) / P5_avg (P5 = late apoptotic): Cell_Line Y220C, proportion of cells; for avgprop_P3 / avgprop_P4 / avgprop_P5 / avgprop_P2 / P2_viable / P3_AnnexinPos_PIneg / P4_PIpos_AnnexinNeg / P5_PIpos_Annexinpos / prop_P3 / prop_P4 / prop_P5 / prop_P2: Y220C; for avgprop_P3: average proportion AnnexinPos PIneg; for avgprop_P4: average proportion PIpos AnnexinNeg; for avgprop_P5: average proportion PIpos Annexinpos; for avgprop_P2: average proportion viable; for P2_viable / P3_AnnexinPos_PIneg / P4_PIpos_AnnexinNeg / P5_PIpos_Annexinpos: event count; for P2_viable / P3_AnnexinPos_PIneg / P4_PIpos_AnnexinNeg / P5_PIpos_Annexinpos / prop_P3 / prop_P4 / prop_P5 / prop_P2: single replicate; for prop_P3: proportion AnnexinPos PIneg; for prop_P4: proportion PIpos AnnexinNeg; for prop_P5: proportion PIpos Annexinpos; for prop_P2: proportion viable
Protocol: Cells were plated in six-well plates and treated with varying concentrations of compounds for 1 day. Cells were stained with annexin V–AF488 and PI following the manufacturer’s instructions (Thermo Fisher, V13241) and analyzed by flow cytometry (Beckman CytoFLEX LX), using untreated cells to establish gates.

[5] = test system: parental 293T cells; assay: cell-cycle analysis (DNA content, DAPI flow cytometry); conditions: WT, 1 day
Protocol: as §1

[6] = Conc 0.38 (unit not given; p53-01 in μM, BI2536 in nM)
[7] = Conc 0.75 (unit not given; p53-01 in μM, BI2536 in nM)
[8] = Conc 1.50 (unit not given; p53-01 in μM, BI2536 in nM)
[9] = Conc 10.00 (unit not given; per b27 BI2536 in nM)

CC[C@@H]1C(=O)N(C)c2cnc(Nc3ccc(C(=O)NC4CCN(C)CC4)cc3OC)nc2N1C1CCCC1 [BI2536]
2N [1, 6]: 59.64
4N [1, 6]: 39.45
8N [1, 6]: 0.91
Right_of_Gate1 (replicates) [1, 6]: 40.36 and 39.92 and 40.00
Right_of_Gate2 (replicates) [1, 6]: 0.91 and 0.89 and 1.00
2N [1, 7]: 59.25
4N [1, 7]: 40.16
8N [1, 7]: 0.59
Right_of_Gate1 (replicates) [1, 7]: 40.75 and 40.54 and 40.62
Right_of_Gate2 (replicates) [1, 7]: 0.59 and 0.51 and 0.57
2N [1, 8]: 58.82
4N [1, 8]: 40.66
8N [1, 8]: 0.52
Right_of_Gate1 (replicates) [1, 8]: 41.18 and 41.58 and 39.89
Right_of_Gate2 (replicates) [1, 8]: 0.52 (2×) and 0.50
2N [1, 9]: 2.81
4N [1, 9]: 3.65
8N [1, 9]: 93.54
Right_of_Gate1 (replicates) [1, 9]: 97.19 and 96.75 and 95.65
Right_of_Gate2 (replicates) [1, 9]: 93.54 and 93.93 and 86.65
mean_norm (caspase 3/7 glo) ([2]; Concentration 0.0195312): 0.7877
mean_norm (caspase 3/7 glo) ([2]; Concentration 0.0390625): 0.7982
mean_norm (caspase 3/7 glo) ([2]; Concentration 0.078125): 0.8973
mean_norm (caspase 3/7 glo) ([2]; Concentration 0.15625): 0.6969
mean_norm (caspase 3/7 glo) ([2]; Concentration 0.3125): 0.7125
mean_norm (caspase 3/7 glo) ([2]; Concentration 0.625): 0.7879
mean_norm (caspase 3/7 glo) ([2]; Concentration 1.25): 1.419
mean_norm (caspase 3/7 glo) ([2]; Concentration 2.5): 1.997
mean_norm (caspase 3/7 glo) ([2]; Concentration 5): 1.954
mean_norm (caspase 3/7 glo) ([2]; Concentration 10): 2.025
raw caspase 3/7 glo signal, single replicate ([2]; Concentration 19.5312): 115256 and 127200 and 115855 and 132591
raw caspase 3/7 glo signal, single replicate ([2]; Concentration 39.0625): 137775 and 105993 and 131607 and 122061
raw caspase 3/7 glo signal, single replicate ([2]; Concentration 78.125): 135249 and 137668 and 143467 and 142866
raw caspase 3/7 glo signal, single replicate ([2]; Concentration 156.25): 101297 and 110278 and 108541 and 114189
raw caspase 3/7 glo signal, single replicate ([2]; Concentration 312.5): 98096 and 116170 and 98914 and 130859
raw caspase 3/7 glo signal, single replicate ([2]; Concentration 625): 117128 and 121353 and 128759 and 123804
raw caspase 3/7 glo signal, single replicate ([2]; Concentration 1250): 212391 and 226804 and 198553 and 246616
raw caspase 3/7 glo signal, single replicate ([2]; Concentration 2500): 314760 and 286983 and 322612 and 319985
raw caspase 3/7 glo signal, single replicate ([2]; Concentration 5000): 280409 and 304325 and 302507 and 330408
raw caspase 3/7 glo signal, single replicate ([2]; Concentration 10000): 320499 and 297797 and 322913 and 320880
mean_norm (caspase 3/7 glo) ([3]; Concentration 0.0195312): 0.9498
mean_norm (caspase 3/7 glo) ([3]; Concentration 0.0390625): 0.9355
mean_norm (caspase 3/7 glo) ([3]; Concentration 0.078125): 1.009
mean_norm (caspase 3/7 glo) ([3]; Concentration 0.15625): 0.7951
mean_norm (caspase 3/7 glo) ([3]; Concentration 0.3125): 0.7961
mean_norm (caspase 3/7 glo) ([3]; Concentration 0.625): 0.9439
mean_norm (caspase 3/7 glo) ([3]; Concentration 1.25): 1.163
mean_norm (caspase 3/7 glo) ([3]; Concentration 2.5): 1.635
mean_norm (caspase 3/7 glo) ([3]; Concentration 5): 1.96
mean_norm (caspase 3/7 glo) ([3]; Concentration 10): 2.136
raw caspase 3/7 glo signal, single replicate ([3]; Concentration 19.5312): 101820 and 113248 and 111453 and 123771
raw caspase 3/7 glo signal, single replicate ([3]; Concentration 39.0625): 126417 and 91473 and 129554 and 96056
raw caspase 3/7 glo signal, single replicate ([3]; Concentration 78.125): 125458 and 106940 and 132813 and 113259
raw caspase 3/7 glo signal, single replicate ([3]; Concentration 156.25): 92236 and 94370 and 93114 and 97215
raw caspase 3/7 glo signal, single replicate ([3]; Concentration 312.5): 90006 and 94305 and 93528 and 99564
raw caspase 3/7 glo signal, single replicate ([3]; Concentration 625): 118546 and 104034 and 117323 and 107564
raw caspase 3/7 glo signal, single replicate ([3]; Concentration 1250): 131108 and 131356 and 152167 and 136802
raw caspase 3/7 glo signal, single replicate ([3]; Concentration 2500): 182654 and 187485 and 215491 and 189535
raw caspase 3/7 glo signal, single replicate ([3]; Concentration 5000): 226831 and 221170 and 240802 and 240601
raw caspase 3/7 glo signal, single replicate ([3]; Concentration 10000): 259590 and 240701 and 269097 and 243095
P3_avg (P3 = early apoptotic) ([4]; Concentration 0.75): 0.03538
P5_avg (P5 = late apoptotic) ([4]; Concentration 0.75): 0.001761
P3_avg (P3 = early apoptotic) ([4]; Concentration 1.5): 0.08725
P5_avg (P5 = late apoptotic) ([4]; Concentration 1.5): 0.03439
avgprop_P3 ([4]; Concentration 0.75): 0.03538
avgprop_P4 ([4]; Concentration 0.75): 0.005431
avgprop_P5 ([4]; Concentration 0.75): 0.001761
avgprop_P2 ([4]; Concentration 0.75): 0.9574
P2_viable ([4]; Concentration 0.75): 2186 and 2152 and 2185
P3_AnnexinPos_PIneg ([4]; Concentration 0.75): 74 and 98 and 69
P4_PIpos_AnnexinNeg ([4]; Concentration 0.75): 7 and 17 and 13
P5_PIpos_Annexinpos ([4]; Concentration 0.75): 5 and 3 and 4
prop_P3 ([4]; Concentration 0.75): 0.03257 and 0.04317 and 0.03038
prop_P4 ([4]; Concentration 0.75): 0.003081 and 0.007489 and 0.005724
prop_P5 ([4]; Concentration 0.75): 0.002201 and 0.001322 and 0.001761
prop_P2 ([4]; Concentration 0.75): 0.9621 (2×) and 0.948
avgprop_P3 ([4]; Concentration 1.5): 0.08725
avgprop_P4 ([4]; Concentration 1.5): 0.1027
avgprop_P5 ([4]; Concentration 1.5): 0.03439
avgprop_P2 ([4]; Concentration 1.5): 0.7757
P2_viable ([4]; Concentration 1.5): 1282 and 1336 and 510
P3_AnnexinPos_PIneg ([4]; Concentration 1.5): 163 and 159 and 47
P4_PIpos_AnnexinNeg ([4]; Concentration 1.5): 201 and 160 and 62
P5_PIpos_Annexinpos ([4]; Concentration 1.5): 59 and 56 and 23
prop_P3 ([4]; Concentration 1.5): 0.0956 and 0.09293 and 0.07321
prop_P4 ([4]; Concentration 1.5): 0.1179 and 0.09351 and 0.09657
prop_P5 ([4]; Concentration 1.5): 0.0346 and 0.03273 and 0.03583
prop_P2 ([4]; Concentration 1.5): 0.7519 and 0.7808 and 0.7944
2N [5, 6]: 60.20
4N [5, 6]: 37.88
Right_of_Gate1 (replicates) [5, 6]: 39.80 and 40.72 and 40.28
Right_of_Gate2 (replicates) [5, 6]: 1.92 and 1.75 and 1.63
2N [5, 7]: 60.97
4N [5, 7]: 37.16
Right_of_Gate1 (replicates) [5, 7]: 39.03 and 39.73 and 39.74
Right_of_Gate2 (replicates) [5, 7]: 1.87 and 1.62 and 1.66
2N [5, 8]: 59.07
4N [5, 8]: 38.46
Right_of_Gate1 (replicates) [5, 8]: 40.93 and 41.63 and 42.56
Right_of_Gate2 (replicates) [5, 8]: 2.47 and 2.39 and 2.53
2N [5, 9]: 2.57
4N [5, 9]: 4.74
Right_of_Gate1 (replicates) [5, 9]: 97.43 and 97.32 and 97.36
Right_of_Gate2 (replicates) [5, 9]: 92.69 and 91.65 and 92.21
